Laboratory results: patent US20200038513A1, “MODULATORS OF FAK PROTEOLYSIS AND ASSOCIATED METHODS OF USE” (ARVINAS OPERATIONS, INC., priority 2018, published 2020)

Experiments:
Fak [1] = target: T1, Fak (Homo sapiens, UniProt Q05397); assay: Fak degradation, immunoblotting in PC3 cells; type: cell-based; settings: PC3 cells, 24 hour treatment; for Dmax: PC-3, degradation maximum, n = 3
Procedure: PC3 cells were cultured in F12-K (Kaighn's Modification of Ham's F-12 Medium), supplemented with 10% fetal bovine serum (FBS) and 1% penicillin-streptomycin at 37° C. and 5% CO2.
If not indicated otherwise, cells were seeded and grown to 80% confluency and were treated with compound or control for 24 hours. […] After 20 minutes the mixture was spun down at 16,000×g for 10 minutes at 4° C. to pellet insoluble materials. Protein concentration of supernatants were determined via BCA assay (Thermo Fisher) before addition of NuPAGE sample buffer containing 5% β-Me and boiling at 95° C. for 10 minutes. Equal amounts of protein were subjected to SDS-PAGE and subsequent electrophoretic transfer onto nitrocellulose membrane. […] Immunoblots were developed using enhanced chemiluminescence and visualized using a Bio-Rad Chemi-Doc MP Imaging System and quantitated with Image Lab v.5.2.1 software (Bio-Rad Laboratories). Data analysis and statistics was performed using Prism 7.0 (GraphPad).
Examination of Target Protein (Fak) Degradation.

Fak [2] = target: T1, Fak; assay: Kinase activity assay (Reaction Biology Corp.); type: biochemical; set-up: purchased Reaction Biology Corp. (contract assay service); settings: 10 μM ATP, n = 2
Procedure: Reactions were carried out at 10 μM ATP. IC50 values were calculated using Prism 7.0 (GraphPad).

[3] = Pharmacokinetics of intraperitoneal or intravenous injection in CD1 mice; type: in vivo
Procedure: The pharmacokinetics of exemplary compounds 103, 107, 100, 101, and 102 was examined for intraperitoneal and intravenous administration. The desired serial concentrations of working solutions were achieved by diluting stock solution (1 mg/mL in DMSO) of analyte with methanol. In particular, 20 μL of working solutions (1, 2, 5, 10, 50, 100, 500, 1000, 2000 ng/mL) were added to 20 μL of the blank CD1 mice plasma to achieve calibration standards of 1-2000 ng/mL (1, 2, 5, 10, 50, 100, 500, 1000, 2000 ng/mL) in a total volume of 40 μL. Dose of IV and IP were diluted by 1000 fold and 10000 with methanol, 20 μL of the diluted dose solutions were added to 20 μL of the blank CD1 mice plasma to achieve dose samples. Next, 40 μL standards and 40 μL dose samples were added to 20 μL of IS (100 ng/mL) and 200 μL of acetonitrile for precipitating protein respectively. Then the samples were vortexed for 30 seconds. After centrifugation at 4 degree Celsius, 4000 rpm for 15 minutes, the supernatant was diluted 3 times with water. 10 μL of the diluted supernatant was injected into the LC/MS/MS system for quantitative analysis.
Exemplary compounds 103, 107, 100, 101, and 102 were administered intravenously (5 second injection of 10% HP-b-CD and 40 mM sodium acetate and 40 mM NaCl in water, pH4.5) or intraperitoneally (5% EtOH and 5% Solutol HS15 in D5W(ESD-2)) to 6-8 week old male CD1 mice (3 mice per treatment group for a total of 12 mice) at the time points indicated below in Table 7. The mice had free access to food and water.
Dorsal metatarsal vein samples (30 μL), except that the final sample was acquired via a heart puncture, were taken from the mice at the same the administration time points as shown in Table 7.

T1 sequence (Q05397 whole entry): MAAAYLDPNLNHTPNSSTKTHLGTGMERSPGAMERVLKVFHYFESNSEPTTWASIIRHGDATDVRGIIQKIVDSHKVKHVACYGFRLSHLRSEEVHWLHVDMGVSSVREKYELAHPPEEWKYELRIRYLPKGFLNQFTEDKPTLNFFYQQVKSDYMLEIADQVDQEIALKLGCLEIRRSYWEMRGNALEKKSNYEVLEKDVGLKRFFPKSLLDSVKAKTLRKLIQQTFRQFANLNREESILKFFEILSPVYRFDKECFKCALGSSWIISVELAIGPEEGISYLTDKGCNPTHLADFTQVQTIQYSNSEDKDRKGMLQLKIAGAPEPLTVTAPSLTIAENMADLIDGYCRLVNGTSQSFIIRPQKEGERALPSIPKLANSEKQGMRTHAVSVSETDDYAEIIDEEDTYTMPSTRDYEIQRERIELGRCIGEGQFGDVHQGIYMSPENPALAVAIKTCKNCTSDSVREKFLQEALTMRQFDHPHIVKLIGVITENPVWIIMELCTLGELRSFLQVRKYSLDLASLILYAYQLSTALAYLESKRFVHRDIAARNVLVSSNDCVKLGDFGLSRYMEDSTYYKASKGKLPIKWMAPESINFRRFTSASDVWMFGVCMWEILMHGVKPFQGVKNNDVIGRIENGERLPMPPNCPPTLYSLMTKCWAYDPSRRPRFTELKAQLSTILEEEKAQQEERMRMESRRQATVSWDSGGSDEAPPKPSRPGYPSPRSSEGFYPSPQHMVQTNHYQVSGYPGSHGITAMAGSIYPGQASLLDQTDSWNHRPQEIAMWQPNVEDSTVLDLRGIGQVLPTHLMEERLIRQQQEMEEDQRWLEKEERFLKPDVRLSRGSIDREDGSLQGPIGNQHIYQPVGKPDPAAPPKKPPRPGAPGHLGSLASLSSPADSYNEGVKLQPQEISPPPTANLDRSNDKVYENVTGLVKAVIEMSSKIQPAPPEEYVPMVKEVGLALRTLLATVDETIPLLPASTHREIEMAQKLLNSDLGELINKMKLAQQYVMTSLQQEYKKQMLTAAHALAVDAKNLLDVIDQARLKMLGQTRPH

Compound	Dmax (Fak [1])	DC50 (Fak [1]; half-maximal degradation concentration)	IC50 (Fak [2])	Fak degradation / effect on Fak levels (in words) (Fak [1])	AUClast (h * ng/mL) IP ([3]; IP)	T ½ (h) IP ([3]; IP)	AUClast (h * ng/mL) IV ([3]; IV)	T ½ (h) IV ([3]; IV)
Cc1ncsc1-c1ccc(CNC(=O)[C@@H]2C[C@@H](O)CN2C(=O)[C@@H](NC(=O)CCOCCOCCOCCOCCOc2ccc(Nc3ncc(C(F)(F)F)c(NCc4cccc(N(C)S(C)(=O)=O)c4)n3)cc2)C(C)(C)C)cc1 [Compound 105, (2S,4R)-1-((S)-17-(tert-butyl)-1-(4-((4-((3-(N-methylmethylsulfonamido)benzyl)amino)-5-(trifluoromethyl)pyrimidin-2-yl)amino)phenoxy)-15-oxo-3,6,9,12-tetraoxa-16-azaoctadecan-18-oyl)-4-hydroxy-N-(4-(4-methylthiazol-5-yl)benzyl)pyrrolidine-2-carboxamide]	91%	48.1 nM	6.1 ± 0.1 nM					
Cc1ncsc1-c1ccc(CNC(=O)[C@@H]2C[C@H](O)CN2C(=O)[C@@H](NC(=O)CCOCCOc2ccc(Nc3ncc(C(F)(F)F)c(NCc4cccc(N(C)S(C)(=O)=O)c4)n3)cc2)C(C)(C)C)cc1 [Compound 106, (2S,4S)-1-((S)-3,3-dimethyl-2-(3-(2-(4-((4-((3-(N-methylmethylsulfonamido)benzyl)amino)-5-(trifluoromethyl)pyrimidin-2-yl)amino)phenoxy)ethoxy)propanamido)butanoyl)-4-hydroxy-N-(4-(4-methylthiazol-5-yl)benzyl)pyrrolidine-2-carboxamide]	0%		11.2 nM	no Fak degradation				
N-(2-((2-(2,6-dioxopiperidin-3-yl)-1,3-dioxoisoindolin-4-yl)oxy)ethyl)-3-(3-(4-((4-((3-(N-methylmethylsulfonamido)benzyl)amino)-5-(trifluoromethyl)pyrimidin-2-yl)amino)phenoxy)propoxy)propanamide [Compound 108]					208 ng·h/mL	1.10 h	3.80 ng·h/mL	0.058 h
